Converted amounts (≈) assume the structure as drawn. Where two headings read alike, the source gives them in different places. No end group written: not given here.
What was measured:
Enterobacter spp = assay: MIC growth inhibition assay in MHB2; assay type: cell-based, Enterobacter spp: EA (aerogenes), EC (cloacae)
Protocol: (§1) Bacteria. Bacterial clinical isolates, used for initial screening and in previous studies [Greber K E et al., 2017], were anonymously provided by the clinical microbiology laboratory of the University of Pittsburgh medical Center. The panel used for secondary screening was from CDC (Table 4), with resistance profiles data. Bacteria are stored in lock-secured −80° C. freezer and typically retrieved by obtaining single colonies on agar plates prior for subsequent liquid broth cultures. Suspensions of test bacteria were prepared from log phase of growth by diluting overnight cultures at 1:100 with fresh cation-adjusted MHB (MHB2, Millipore Sigma, USA) and incubating for additional 3-4 hours. Bacteria were spun at 3000×g for 10 minutes and the pellet resuspended in test condition media (Millipore Sigma, USA) to determine bacterial turbidity using a Den-1B densitometer (Grant Instruments, USA) at 0.5 McFarland (unit of bacterial density) corresponding to […].
(§2) Antibacterial assays. To examine antibacterial activity, this study used minor modifications of a standard growth inhibition assay endorsed by the Clinical and Laboratory Standards Institute (CLSI), as previously described [Greber K E et al., 2017]. Bacteria were incubated with each of the indicated peptides in MHB2. The bacterial cells were kept in an incubator for 18 hours at 37° C., which is linked to a robotic system that feeds a plate reader every hour with one of 8×96-well plates. This set-up allows the collection of growth kinetic data at A 570 (absorbance at 570 nm) to examine growth inhibition in real time (BioTek Instruments, USA). […] To assess bactericidal properties of the peptide, the assay was modified by using 15% fetal bovine serum (FBS, for a more physiologically relevant test condition) mixed with 25% MHB2 and 60% PBS. Bacterial cells (colony forming unit/mL or CFU/mL) were enumerated after incubating treated bacteria for 3 hours and plating serially diluted samples on broth agar medium at 37° C. overnight. […] For killing kinetics, we slightly modified the bactericidal assay to examine bacterial killing at the MBC (or 2×MBC) as a function of time for up to 3 hours. Data were analyzed using GraphPad Prism software.

K. pneumoniae = assay: MIC growth inhibition assay in MHB2; assay type: cell-based, klebsiella pneumoniae; conditions: read-out: MIC
Protocol: as §1, §2

A. baumannii = assay: microbe, parasite or virus in culture
Protocol: as §1, §2

E. coli = assay: microbe, parasite or virus in culture
Protocol: as §1, §2

P. aeruginosa = assay: microbe, parasite or virus in culture
Protocol: as §1, §2

E. Faecium = assay: MIC growth inhibition assay in MHB2; assay type: cell-based, Enterococcus faecium
Protocol: as §1, §2

S. aureus = assay: MIC growth inhibition assay in MHB2; assay type: cell-based, Staphylococcus aureus
Protocol: as §1, §2

[1] = system: MDR clinical strains of ESKAPE pathogens and E. coli provided by the CDC (AR isolates panel); assay: Advanced testing, MIC against CDC AR isolates panel; assay type: cell-based; conditions: colistin-resistant strains
Protocol: as §1, §2

human red blood cells = conditions: at 16 μM, published data; cited from earlier work

In the case of `NC[C@H]1O[C@H](O[C@H]2[C@H](O)[C@@H](O[C@H]3O[C@H](CO)[C@@H](O)[C@H](N)[C@H]3O)[C@H](N)C[C@@H]2N)[C@H](N)C[C@@H]1O` [Tob], the MIC (Enterobacter spp; strain EA518 (aerogenes)) is reported as >16 µM, the MIC (Enterobacter spp; strain EA596 (aerogenes)) is reported as >16 µM and the MIC (Enterobacter spp; strain EC470 (cloacae)) is reported as 4 µM (≈ 1.87 µg/mL). For the same compound, the MIC (Enterobacter spp; strain EC560 (cloacae)) was >16 µM, the MIC (K. pneumoniae; strain KPA5) was >16 µM and the MIC (K. pneumoniae; strain KPB3) was >16 µM. The MIC (A. baumannii; strain AB-A2) was 0.5 µM (≈ 0.234 µg/mL), the MIC (A. baumannii; strain AB-A3) was 16 µM (≈ 7.48 µg/mL) and the MIC (A. baumannii; strain AB-F8) was >16 µM. The MIC (A. baumannii; strain AB-F9) was 2 µM (≈ 0.935 µg/mL), the MIC (E. coli; strain YDC337) was >16 µM and the MIC (E. coli; strain YDC748) was 16 µM (≈ 7.48 µg/mL). For the same compound, the MIC (P. aeruginosa; strain PA01) was 1 µM (≈ 0.468 µg/mL), the MIC (P. aeruginosa; strain PA14) was 0.5 µM (≈ 0.234 µg/mL) and the MIC (P. aeruginosa; strain PA97-5) was >16 µM. It also gave an MIC (P. aeruginosa; strain PA129-5) of 16 µM (≈ 7.48 µg/mL).
For `Cc1onc(-c2ccccc2)c1C(=O)N[C@@H]1C(=O)N2[C@@H]1SC(C)(C)[C@@H]2C(=O)O` [Oxa], the MIC (E. Faecium; strain EF23614) was 0.25 µM (≈ 0.1 µg/mL), the MIC (E. Faecium; strain EF24670) was >16 µM and the MIC (E. Faecium; strain EF26215) was 2 µM (≈ 0.803 µg/mL). For the same compound, the MIC (E. Faecium; strain EF26692) was 2 µM (≈ 0.803 µg/mL), the MIC (S. aureus; strain SA12212) was 8 µM (≈ 3.21 µg/mL) and the MIC (S. aureus; strain SA18710) was 4 µM (≈ 1.61 µg/mL). The MIC (S. aureus; strain SA49775) was 0.25 µM (≈ 0.1 µg/mL) and the MIC (S. aureus; strain SA-US300) was 4 µM (≈ 1.61 µg/mL).
In the case of `Cc1nnc(SCC2=C(C(=O)O)N3C(=O)[C@@H](NC(=O)Cn4cnnn4)[C@H]3SC2)s1` [Cefa], the MIC (E. Faecium; strain EF23614) is reported as >16 µM, the MIC (E. Faecium; strain EF24670) is reported as >16 µM and the MIC (E. Faecium; strain EF26215) is reported as 4 µM (≈ 1.82 µg/mL). The MIC (E. Faecium; strain EF26692) was 4 µM (≈ 1.82 µg/mL), the MIC (S. aureus; strain SA12212) was 16 µM (≈ 7.27 µg/mL) and the MIC (S. aureus; strain SA18710) was 16 µM (≈ 7.27 µg/mL). For the same compound, the MIC (S. aureus; strain SA49775) was 2 µM (≈ 0.909 µg/mL) and the MIC (S. aureus; strain SA-US300) was 8 µM (≈ 3.64 µg/mL).
For RWVRRVRRWVRRVRRVVRRW [E70], the cross-resistance with colistin [1] was “no cross-resistance at all”.
RRVWRRVRRVWRRVRRVWRRVV [E75] gave an MIC (P. aeruginosa) of 13 µM.
In the case of “Ac-LKRVWKRVFKLLKRYWRQLKKPVR-NH2 [SAAP-148]”, the “red blood cell (RBC) lysis” value (human red blood cells) is listed as “only moderate”.
For RRWVRRVRRVWRRVRRVVRRWV [E4], the cross-resistance with colistin [1] was “no cross-resistance at all”.

From patent publication US20240197823A1, “CATIONIC ANTIMICROBIAL PEPTIDES AND USES THEREOF” (priority 2021, published 2024)
